Data taken from a melting point compilation (Tetko et al.; mined from patent text by program, amines drawn as free bases though some values may be those of a salt).

Row | SMILES | melting point
1 | COc1cc(C2=NNC(=O)Cc3cc4c(cc32)OCO4)ccc1[N+](=O)[O-] | 267 to 269 °C
2 | CCOC(=O)C1CCc2c(oc3ccc(C(N)=O)cc23)C1 (stereo unspecified) | 206 to 208 °C
3 | COc1cc(N2CCC(N3CCNCC3)CC2)ccc1Nc1ncc2ccc(-c3ccccc3OC)n2n1 | 65 to 67 °C
4 | Cc1ccc(Nc2nnc(-c3ccc(SC(F)(F)F)cc3)s2)cc1Cl | 215 to 216 °C
5 | Clc1ccc2c(c1)N=Cc1ccccc1O2 | 73 to 73.5 °C
6 | O=C(O)C1c2cc(Br)ccc2COc2ccc(Br)cc21 (stereo unspecified) | 179 to 182 °C
7 | CN(C(=O)OCc1ccccc1)[C@@H](CC(N)=O)C(=O)N[C@@H](Cc1ccccc1)[C@H](O)C(=O)N1CCC[C@H]1C(=O)NC(C)(C)C | 100 to 103 °C
8 | COC(=O)c1c(-c2ccc(F)cc2)c2c3ccccc3ccn2c1C(C)C | 170 to 173 °C
9 | CC(=O)C12CCC(CC1)CC2(C)O (stereo unspecified) | 43 to 44 °C
10 | Cc1ccc(N2CSC(=NCc3ccc(C(F)(F)C(F)(F)F)cc3)N(CC(F)(F)F)C2=O)cc1 | 103 to 104 °C
11 | O=C(Nc1ccc(Cl)c(C(F)(F)F)c1)c1ccccc1NCc1ccc(=O)[nH]c1 | 231 °C
12 | CCCC(=O)Nc1ccc(Sc2ccccc2)cc1NC(=NC(=O)OC)NC(=O)OC | 164 to 166 °C
13 | CCCc1ccc(S(=O)(=O)Nc2ccc3nc(C)ccc3c2)cc1 | 174 °C
14 | CS(=O)(=O)c1ccc(-c2cnn(-c3cccc(Cl)c3)c(=O)c2Cc2cccc(F)c2)cc1 | 142 to 143 °C
15 | Cc1ccc(-c2nc(C#N)c(-c3cccc(Cl)c3)n2-c2cc(Cl)ccc2C)cc1C | 218 °C
16 | O=C(O)c1ccc2cn[nH]c2c1 | > 250 °C
17 | Cn1c(=O)c2[nH]c(C=Cc3cccc([N+](=O)[O-])c3)nc2n(C)c1=O | > 300 °C
18 | CCN(CC)c1ccc(-c2cc(-c3ccc(C(=O)O)cc3)ccc2CCCO)cc1C(C)(C)C | 95 °C
19 | N#Cc1ccc(OCCCCCCl)cc1 | 47 °C
20 | O=S(=O)(c1ccccc1)N1CCC(C(=NCc2ccccc2)c2ccc(F)cc2)CC1 | 153 to 155 °C
21 | COc1ccc(C(=O)N2CCOc3ccc(C4=NNC(=O)CC4)cc32)cc1OC | 207 to 208 °C

Row | SMILES | melting point
22 | CCOCc1nc2c(N)nc3ccccc3c2n1CC(=O)CC | 187 to 188 °C
23 | Cc1ccccc1C(=O)c1ccc(CC#N)n1C | 90 to 92.5 °C
24 | COC(=O)c1ccc2c(c1)Sc1cc(F)ccc1C=C2 | 132 to 135 °C
25 | C#CC1(O)C(C)CC2C3CCC4=CC(=O)CCC4(C)C3CCC21C (stereo unspecified) | > 230 °C
26 | CCCOc1nc(N)c2ncn(C3CCCCC3)c2n1 | 146 to 148 °C
27 | Cc1c(Cc2cccc(C(F)(F)F)c2)sc2c(-c3cccc(C(=O)NCCC#N)c3)cccc12 | 135 to 136 °C
28 | CCS(=O)(=O)Nc1cc(-n2ncc(=O)n(C)c2=O)c(F)cc1C#N | 233 °C
29 | CN1Cc2c(C(=O)OC(C)(C)C)ncn2-c2cccnc2C1=O | 234 to 236 °C
30 | CN(CCNC(=O)NCCCOc1cccc(CN2CCCCC2)c1)CCC(c1ccc(F)cc1)c1ccccn1 (stereo unspecified) | 111 to 115 °C
31 | CCCCCCCCCCNC(=O)CCCOCCO | 48 °C
32 | COc1cc2c(c(OC(C)=O)c1)C1CCC3(C)C(=O)C(Cl)CC3C1CC2 (stereo unspecified) | 164 to 166 °C
33 | COC(=O)COc1c(Cl)cc(C(=O)CN2CCN(c3ccncc3)CC2)cc1Cl | 149 to 150 °C
34 | CC(C)(C)C(=O)C(Br)C(c1ccc(Cl)cc1)S(=O)(=O)c1ccccc1 (stereo unspecified) | 167 to 168 °C
35 | Cn1sc(Cl)c(Cl)c1=O | 119 to 120 °C
36 | COc1cc(OC)nc(NC(=O)NS(=O)(=O)c2ccccc2C2=NOCCO2)n1 | 189 °C
37 | CCOC(=O)Cn1c(C(=O)NCc2nnc(CO)n2-c2sc(CC)cc2C(=O)c2ccccc2Cl)cc2ccccc21 | 92 to 96 °C
38 | CCC(C)(C)c1ccc(OCCCNC(=O)c2cc([N+](=O)[O-])c3ccccc3c2O)c(C(C)(C)CC)c1 | 209 to 210 °C
39 | O=c1c(Cc2cccnc2)cn2c3ccccc3c(=O)c3cccc1c32 | 266 to 268 °C
40 | Fc1cc(F)c(-c2c(Cl)nc3c(Cl)cnn3c2Cl)c(F)c1 | 128 °C
41 | CCOC(=O)c1cn(C2CC2)c2c(F)c(/C=C\c3cc(Cc4cnc(N)nc4N)cc(OC)c3OC)c(F)cc2c1=O | > 220 °C
42 | CS(=O)(=O)Nc1ccc(CCCC(=O)OCc2ccccc2)cc1 | 88 to 89 °C

Other lines, results leading:

Row | melting point | SMILES
43 | > 275 °C | CS(=O)(=O)c1ccc(-c2cc(-c3nc4ccccc4c(=O)n3-c3ccc(Cl)cc3)sc2N2CCOCC2)cc1
44 | 192 to 203 °C | CC1Oc2c(Cc3ccccc3)cc(CN3CCN(c4ccc(C(=O)NC5CC5)cc4)CC3)cc2NC1=O (stereo unspecified)
45 | 127 to 128 °C | CCOC(=O)c1ccc(-c2nnc(-c3ccccc3[N+](=O)[O-])o2)cc1
46 | 41 to 43 °C | CCOc1ccc([N+](=O)[O-])c(C)c1
47 | 207 to 212 °C | Nc1cc(-n2cccc2)ccc1Nc1cccc(-n2ccnc2)c1
48 | 166 °C | C#Cc1ccc(Nc2c(C(=O)c3nccn3C)ccc(F)c2F)c(F)c1
49 | > 300 °C | CNC1(C)CN(c2cc3c(cc2F)c(=O)c(C(=O)O)cn3C2CC2)C1
50 | 262 to 264 °C | CC(C)(C)n1ncc(C(=O)c2ccc(S(C)(=O)=O)c(-c3ccccc3)c2Cl)c1O
51 | 98 to 108 °C | CCOC(=O)c1ccc(N=C(Nc2ccc(C(=O)OCC)cc2)c2ccccc2Cl)cc1
52 | 99 °C | COC(=O)C(O)C(NCc1ccccc1)c1ccccc1 (stereo unspecified)
53 | 117 to 119 °C | CC(=O)c1cc(-c2ccncc2)sc1-c1ccncc1
54 | 138 to 140 °C | O=c1[nH]c2ccc(S(=O)CCN3CCC(O)(Cc4ccccc4)CC3)cc2o1 (stereo unspecified)
55 | 76 to 78 °C | Cc1ccc2c(c1)C(=O)N(CCO[N+](=O)[O-])CO2
56 | 144 to 146 °C | O=C(O)/C(=N\OCF)c1nsc(NC(c2ccccc2)(c2ccccc2)c2ccccc2)n1
57 | 58 to 63 °C | CCS(=O)(=O)c1cccnc1S(=O)(=O)NC(C)(C)C
58 | 76 to 80 °C | COC(=O)C1=C(C)NC(C)=C(C(=O)OCCN2CCN(C(c3ccc(OC)cc3)c3ccc(OC)cc3)CC2)C1c1cccc([N+](=O)[O-])c1 (stereo unspecified)
59 | 180 to 182 °C | Cc1cc(C)cc(-n2c(C=CC3CC(O)CC(O)O3)c(C(C)C)c3ccccc3c2=O)c1 (mixture of isomers)
60 | 295 to 297 °C | O=c1[nH]c2ncc(-c3ccc(-c4nnc[nH]4)cc3)nc2n1CCN1CCOCC1
61 | 25 to 26 °C | COCCc1cnc(Cl)nc1
62 | 161 to 163 °C | C=CCONC(=O)c1nc(Cl)cc(N)c1Cl
63 | 61 °C | CCCCCCCCCCCCCCCCCCCCC(=S)NCCN1CCOCC1
64 | 99 to 102 °C | O=C(c1ccc(F)cc1)C1CCN(CC2CCc3onc(-c4ccccc4F)c3C2=O)CC1 (stereo unspecified)
65 | > 275 °C | N[C@@]1(C(=O)O)C[C@H](NC(=O)Nc2cccc3ccccc23)[C@H]2[C@H](C(=O)O)[C@H]21 (relative stereo)
66 | 246 to 248 °C | CCOC(=O)CC1(S(N)(=O)=O)c2ccccc2-c2ccc(Cl)cc21 (stereo unspecified)
67 | 88 to 90 °C | CCN(C1CC(C)(C)Oc2ccc(OCCCCC(=O)NCCO)cc21)S(C)(=O)=O (stereo unspecified)
68 | 78 to 81 °C | CCC(=O)NC(C)(C)CSc1cc(C)c(Cl)cc1C
69 | 203 to 204 °C | FC(F)(F)c1ccc(-c2cnn(-c3cccnc3)c2)cn1

Row | melting point | SMILES
70 | 165 to 167 °C | Cc1ccccc1C(C#N)=C1C=CC(=NOP(=O)(c2ccccc2)c2ccccc2)S1
71 | 103 to 105 °C | O=Cc1cc(Cl)ccc1Oc1ccccc1[N+](=O)[O-]
72 | 153 to 155 °C | NC(=O)c1cc2cc(OCC3CO3)ccc2o1 (stereo unspecified)
73 | 168 °C | CCOC(=O)C(CCc1ccccc1)NC1CSC(c2cccs2)CN(CC(=O)O)C1=O (stereo unspecified)
74 | 86 to 87 °C | CCCCn1c(=O)c2c(ncn2CCC(C)=O)n(CCCC)c1=O
75 | 156 °C | CCOC(=O)COCC1CCCN(C(=O)c2cnc(NC(=N)N)s2)C1 (racemic)
76 | 155 to 158 °C | COc1ccc(-c2cc(C)nn2-c2ccc([N+](=O)[O-])cc2)cc1
77 | 121 to 122 °C | O=C1c2cccc3c2N(CC3)c2ccc(Br)cc2N1CC#CCN1CCCC1
78 | 152 to 153 °C | COC(=O)Cc1nc(-c2ccc(OC)c(OC)c2)c2cc(OC)c(OC)cc2n1
79 | 252 to 253 °C | CCc1cc(-c2ccc(Cl)cc2)nc2c(C(=O)Nc3cccc(S(N)(=O)=O)c3)cnn12
80 | 257 to 260 °C | O=c1c2c([nH]n1-c1ccc(Br)cc1)-c1cc(Cl)ccc1SC2
81 | 167 to 168 °C | CCC(C)(C)C(=O)Oc1cccc2ccc(OCCOc3ccc(C(=O)C(=O)O)cc3)cc12
82 | 194 °C | COc1ccccc1C1C2CCC(C2)C12CCC(=S)N2 (stereo unspecified)
83 | 286 to 288 °C | O=C(Nc1ccc2nc(S)[nH]c2c1)C(=O)N1CCC(Cc2ccc(F)cc2)CC1
84 | 249 to 250 °C | O=c1c(C2=Nc3ccccc3S(=O)(=O)N2)c(O)c2ccccc2n1CCCC(F)(F)F
85 | 140 °C | CC(c1ccc(C=Cc2ccccc2)o1)N(O)C(N)=O (stereo unspecified)
86 | 185 to 186 °C | Cc1c(C)c2c(c(C)c1NC(=O)NCCCO)C(c1ccc(C(C)C)cc1)CO2 (stereo unspecified)
87 | 229 to 232 °C | O=C(Nc1cccc2c(=O)cc(-c3nnn[nH]3)oc12)c1ccc2c(c1)CC(COCc1ccc(F)cc1)O2 (stereo unspecified)
88 | 171 to 173 °C | Brc1ccc2c(c1)sc1cc(Br)ccc12
89 | 135 to 137 °C | Nc1cccc(C23CC2C(=O)NC3=O)c1 (stereo unspecified)
90 | 171 to 173 °C | Cc1cc(C)c(C)c(P(=O)(c2ccc(F)cc2)c2ccc(F)cc2)c1C
91 | 90 °C | CC1(CCN2C(=O)c3cccc([N+](=O)[O-])c3C2=O)OCCO1
92 | 249 to 250 °C | CCCn1c(=O)c2[nH]c(/C=C/c3cc(OC)cc(OC)c3)nc2n(CCC)c1=O
93 | 98 to 101 °C | C[Si](C)(C)O[C@@]1(C(F)(F)F)OCN(C(=O)OCc2ccccc2)[C@H]1Cc1ccccc1
94 | 232 to 244 °C | Cc1cc(Br)cnc1CCCCNC1=NS(=O)(=O)c2ccccc21
95 | 106 to 108 °C | O=c1nc(N2CCOCC2)ccn1C1OC(CO)C(O)C1O (stereo unspecified)
96 | 40 to 41 °C | COc1cc(N)c(Cl)cc1Br
